Experimental data reported in patent US20080176857A1, “4-Piperazinnylthieno[2,3-d]Pyrimidine Compounds as Platelet Aggregation Inhibitors” (priority 2005, published 2008).
“And” between values parts separate entries of the source, which are not always exact repeats. Equal entries are not always repeated.

Key:
P2Y12 receptor [1] = target: T1, P2Y12 receptor (Homo sapiens, UniProt Q9H244); test: [33P]-2MeS-ADP binding to recombinant human P2Y12 membranes (Assay 3); parameters: expressed in transfected cells; host or cells: HEK cells; settings: for IC50 / Ki: HEK cell membranes expressing human P2Y12, competition with 33P 2MeS-ADP; for % Inhibition / inhibition at 10 µM: 10 μM
Outline: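 Membranes from HEK cells transfected with human P2Y12, used in competitive binding against [33P]-2MeS-ADP in Tris/NaCl/EDTA buffer with 0.02% BSA. Seven-point 3-fold dilutions from 10 μM final, 1 h at room temperature, then filtration and scintillation counting. IC50 from four-parameter fit with Hill slope fixed at one, plate controls defining min/max.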

P2Y12 receptor [2] = target: T1, P2Y12 receptor; test: [33P]2MeS-ADP binding to washed human platelet membranes (Assay 1); parameters: the P2Y12 receptor, which is found on the surface of platelets; tissue Interstate Blood bank, Memphis, Tenn; host or cells: washed human platelets from platelet rich plasma; settings: for inhibition at 10 µM: at highest concentration tested
Protocol: 1. Inhibition of [^33P]2MeS-ADP Binding to Washed Human Platelet Membranes. The ability of a test compound to bind to the P2Y12 receptor was evaluated in a platelet membrane binding assay. In this competitive binding assay, the test compound competed against a radiolabelled agonist for binding to the P2Y12 receptor, which is found on the surface of platelets. Inhibition of binding of the labeled material was measured and correlated to the amount and potency of the test compound. Data from this assay are presented in Table F. Platelet rich plasma (“PRP”) was obtained from the Interstate Blood bank, Memphis, Tenn. Platelet rich plasma was prepared from blood units collected in ACD ((prepared by (1) combining: 2.5 g sodium citrate (Sigma S-4641); 1.5 g citric acid (Sigma C-0706); and, 2.0 g dextrose (Sigma G-7528); (2) bringing pH to 4.5; and (3) adding water to bring volume to 100 mL) and using the light spin protocol; this protocol involves centrifugation at room temperature for approximately 20 minutes at speeds up to 160×g. Platelet rich plasma is supplied in units of approximately 200 ml. Each unit is distributed into four 50 mL polypropylene conical tubes for centrifugation. Blood from each donor is maintained separately.
The 50 mL tubes were centrifuged for 15 minutes at 1100 rpm in Sorvall RT6000D (with H1000B rotor). Internal centrifuge temperature was maintained at approximately room temperature (22-24° C.). This spin pelleted cellular components remaining from the PRP preparation.
The supernatant was decanted into fresh 50 mL tubes. To avoid carry over of cellular components following the room temperature centrifugation, approximately 5 mL of PRP was left in the tube and discarded. The tubes were capped and inverted 2-3 times and allowed to stand at room temperature for at least 15 minutes following inversion.
Optionally, a Coulter Counter may be used to count platelets from the resting samples during the resting phase. Normal human platelet counts are expected to range from 200,000 to 400,000 per μL of PRP supernatant.
The 50 mL tubes containing PRP supernatant were centrifuged for 15 minutes at 2300-2400 rpm to loosely pellet the platelets. The supernatant from this spin was decanted immediately into a clean cell culture bottle (Corning bottle) and saved in case further centrifugation was needed. The pellet of each tube was resuspended in 2-4 mL of Wash buffer (pH 6.5) (1 L prepared new daily—134 mM NaCl (Sigma S-5150); 3 mM KCl (Sigma P-9333); 1 mM CaCl2 (JT Baker 1311-01); 2 mM MgCl2 (Sigma M-2670); 5 mM glucose (EM 4074-2); 0.3 mM NaH2PO4 (Sigma S-9638)/12 mM NaHCO3 (JT Baker 3506-01); 5 mM HEPES pH 7.4 (Gibco 12379-012); 0.35% BSA (Sigma A-7906); 330 mg Heparin (bovine lung, Sigma H-4898); and 30 mL of ACD) by repeated gentle aspiration using disposable polypropylene sample pipettes.
Wash buffer (pH 6.5) was added to each tube to bring the volume to approximately 40 mL. Each tube was incubated for at least 15 minutes at 37° C.
The tubes were then centrifuged again for 15 minutes at 2300-2400 rpm to loosely pellet the platelets. The supernatant was decanted and discarded. The pellet was resuspended in 2-4 mL of Assay buffer (pH 7.4) (1 L volume—134 mM NaCl; 3 mM KCl; 1 mM CaCl2; 2 mM MgCl2; 5 mM glucose; 0.3 mM NaH2PO4/12 mM NaHCO3; 5 mM HEPES pH 7.4; and 0.35% BSA) by repeated aspiration using disposable polypropylene sample pipettes.
The pooled platelet preparation was counted using a Coulter Counter. […]

[3] = at highest concentration tested
[4] = washed human platelet membranes, competition with [33P]2MeS-ADP

T1 sequence (Q9H244 whole entry): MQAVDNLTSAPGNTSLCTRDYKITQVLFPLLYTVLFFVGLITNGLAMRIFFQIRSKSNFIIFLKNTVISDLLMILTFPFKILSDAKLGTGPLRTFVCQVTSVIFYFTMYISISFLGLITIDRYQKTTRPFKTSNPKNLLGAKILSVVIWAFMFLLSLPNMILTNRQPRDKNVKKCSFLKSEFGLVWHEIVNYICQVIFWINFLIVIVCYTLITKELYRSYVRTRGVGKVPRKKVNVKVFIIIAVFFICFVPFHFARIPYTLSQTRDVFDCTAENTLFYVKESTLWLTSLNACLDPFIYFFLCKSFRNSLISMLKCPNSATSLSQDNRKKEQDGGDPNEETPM

IC50 (P2Y12 receptor [1])	Ki (P2Y12 receptor [1])	inhibition at 1 µM (P2Y12 receptor [1]; at highest concentration tested, 1 μM)	% Inhibition (P2Y12 receptor [1]; [3])	inhibition at 10 µM (P2Y12 receptor [1]; [3])	inhibition at 10 µM (P2Y12 receptor [2])	IC50 (P2Y12 receptor [2]; [4])	Ki (P2Y12 receptor [2]; [4])	SMILES
35 nM and 20 nM and 69 nM	20 nM and 10 nM and 40 nM	94%	87.73%	92.6%				CCc1cc2c(N3CCN(C(=O)c4cccc(-c5ccccc5)c4)CC3)nc(SCC(=O)OC)nc2s1 [Example 78, Methyl ({4-[4-(1,1′-biphenyl-3-ylcarbonyl)piperazin-1-yl]-6-ethylthieno[2,3-d]pyrimidin-2-yl}thio)acetate]
8700 nM	5050 nM			47.7%				CCc1cc2c(N3CCN(C(=O)c4ccc(C(N)=O)cc4)CC3)nc(SCC(=O)OC)nc2s1 [Example 79, Methyl [(4-{4-[4-(aminocarbonyl)benzoyl]piperazin-1-yl}-6-ethylthieno[2,3-d]pyrimidin-2-yl)thio]acetate]
3780 nM	2450 nM			60%				CCc1cc2c(N3CCN(C(=O)c4ccc(C(=O)OC)cc4)CC3)nc(SCC(=O)OC)nc2s1 [Example 80, Methyl 4-[(4-{6-ethyl-2-[(2-methoxy-2-oxoethyl)thio]thieno[2,3-d]pyrimidin-4-yl}piperazin-1-yl)carbonyl]benzoate]
1720 nM	1070 nM			76.7%				CCc1cc2c(N3CCN(C(=O)c4csc(-c5cccnc5)n4)CC3)nc(SCC(=O)OC)nc2s1 [Example 81, Methyl [(6-ethyl-4-{4-[(2-pyridin-3-yl-1,3-thiazol-4-yl)carbonyl]piperazin-1-yl}thieno[2,3-d]pyrimidin-2-yl)thio]acetate]
390 nM and 1170 nM and 220 nM and 270 nM and 400 nM	212 nM and 667 nM and 120 nM and 150 nM and 230 nM		86.00% and 93.95% and 94.10% and 89.55%	92.7%				CCc1cc2c(N3CCN(C(=O)Cc4ccccc4)CC3)nc(SCCC(=O)OC)nc2s1 [Example 82, methyl 3-({6-ethyl-4-[4-(phenylacetyl)piperazin-1-yl]thieno[2,3-d]pyrimidin-2-yl}thio)propanoate]
230 nM and 940 nM and 430 nM and 470 nM	127 nM and 540 nM and 240 nM and 270 nM		90.75% and 91.85% and 86.17%	92%				CCc1cc2c(N3CCN(C(=O)Cc4ccccc4)CC3)nc(SCC(=O)O)nc2s1 [Example 83, ({6-ethyl-4-[4-(phenylacetyl)piperazin-1-yl]thieno[2,3-d]pyrimidin-2-yl}thio)acetic acid]
					39.5%	> 10000 nM		CCc1cc2c(N3CCN(C(=O)Cc4ccccc4)CC3)nc(SCc3ccccc3)nc2s1 [Example 85, 2-(benzylthio)-6-ethyl-4-[4-(phenylacetyl)piperazin-1-yl]thieno[2,3-d]pyrimidine]
					52.9%	7930 nM	7510 nM	CCc1cc2c(N3CCN(C(=O)Cc4ccccc4)CC3)nc(SCc3ccco3)nc2s1 [Example 86, 6-ethyl-2-[(2-furylmethyl)thio]-4-[4-(phenylacetyl)piperazin-1-yl]thieno[2,3-d]pyrimidine]
570 nM and 590 nM and 200 nM and 320 nM	310 nM and 337 nM and 110 nM and 180 nM							CCc1cc2c(N3CCN(C(=O)Cc4ccccc4)CC3)nc(SCCO)nc2s1 [Example 87, 2-({6-ethyl-4-[4-(phenylacetyl)piperazin-1-yl]thieno[2,3-d]pyrimidin-2-yl}thio)ethanol]
1680 nM and 1480 nM and 640 nM and 370 nM and 1200 nM	913 nM and 848 nM and 370 nM and 210 nM and 700 nM		80.30% and 84.54% and 89.14% and 82.41%	94.1%				CCc1cc2c(N3CCN(C(=O)Cc4ccccc4)CC3)nc(SCCN(C)C)nc2s1 [Example 88, N-[2-({6-ethyl-4-[4-(phenylacetyl)piperazin-1-yl]thieno[2,3-d]pyrimidin-2-yl}thio)ethyl]-N,N-dimethylamine]

SMILES	IC50 (P2Y12 receptor [1])	Ki (P2Y12 receptor [1])	inhibition at 1 µM (P2Y12 receptor [1]; at highest concentration tested, 1 μM)	% Inhibition (P2Y12 receptor [1]; [3])	inhibition at 10 µM (P2Y12 receptor [1]; [3])	inhibition at 10 µM (P2Y12 receptor [2])	IC50 (P2Y12 receptor [2]; [4])	Ki (P2Y12 receptor [2]; [4])
CCc1cc2c(N3CCN(C(=O)Cc4ccccc4)CC3)nc(SCCCCO)nc2s1 [Example 84, 4-({6-ethyl-4-[4-(phenylacetyl)piperazin-1-yl]thieno[2,3-d]pyrimidin-2-yl}thio)butan-1-ol]	580 nM and 1440 nM and 220 nM and 270 nM and 520 nM	315 nM and 825 nM and 130 nM and 150 nM and 300 nM		90.62% and 71.83% and 92.13% and 94.46% and 90.58%				
